Here are results for twelve molecules from patent US9873690B2, “3-indol substituted derivatives, pharmaceutical compositions and methods for use” (Pfizer Inc., priority 2015, dated 2018).

One may read the IC50 as the concentration at which inhibition is half-maximal. Lower therefore signals greater potency.

The target of the assay is T1, hTDO2 (Homo sapiens, UniProt P48775).
T1 construct: endogenous in cells; host or cells: A172 human brain glioblastoma cells (ATCC CRL-1620)
T1 sequence (P48775 whole entry): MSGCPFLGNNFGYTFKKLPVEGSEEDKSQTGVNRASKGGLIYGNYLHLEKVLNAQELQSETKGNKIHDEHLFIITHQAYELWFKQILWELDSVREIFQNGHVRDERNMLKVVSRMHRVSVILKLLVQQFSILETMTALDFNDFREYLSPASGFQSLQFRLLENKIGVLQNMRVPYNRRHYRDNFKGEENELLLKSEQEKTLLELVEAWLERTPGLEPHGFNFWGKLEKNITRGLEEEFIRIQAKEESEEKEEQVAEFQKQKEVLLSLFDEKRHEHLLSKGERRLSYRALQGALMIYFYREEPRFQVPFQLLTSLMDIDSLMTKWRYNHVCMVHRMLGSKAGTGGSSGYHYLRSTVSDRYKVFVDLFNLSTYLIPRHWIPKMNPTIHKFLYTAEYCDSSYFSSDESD
Description: Cellular assay for TDO2 activity determination in A172 cells. It counts as cell-based. The note with it: human glioblastoma A172 cells naturally expressing hTDO2; overnight incubation; kynurenine by absorbance at 480 nm. Here is the method:
The compounds of formula I inhibit the activity of human TDO2 in cells that constitutively express TDO2, such as A172 cells. A172 is a cell line derived from human brain glioblastoma cells. The cells are available from the American Type Culture Collection (ATCC®) as CRL-1620™.
The assay (adapted from Pilotte L et al., Proc Natl Acad Sci USA, 2012, 109(7), 2497-502) was performed in 96-well flat bottom plates seeded with human glioblastoma A172 cells, naturally expressing hTDO2 (prepared as described in Tilman et al., Mol Cancer, 2007, 17(6), 80), at a concentration of 1.25×10^4 cells/well in a final volume of 200 μL. To determine TDO, the cells were incubated overnight at 37° C. at 5% CO2 in IMDM (Invitrogen) supplemented with 2% FBS and 2% penicillin/streptomycin in the presence of the compounds of the present invention, at different concentrations.
The plates were then centrifuged 5 min at 1000 rpm, and 100 μL of the supernatant were collected in a conical plate, 30 μL of TCA 30% were added and a further centrifuged at 3000×g for 10 minutes. 100 μL of the supernatant were collected in a flat bottomed plate and 100 μL of 2% (w/v) 4-(dimethylamino)-benzaldehyde in acetic acid and incubated for 5 min at room temperature. Kynurenine concentrations were determined by measuring the absorbance at 480 nm. A standard curve was made with pure kynurenine. The TDO activity was measured as described above using ten serial concentrations of the compounds of the present invention. Data were fitted using the Prism™ software (GraphPad Software, Inc.) using standard parameters.
The biological activity of representative compounds in human brain glioblastoma cells as determined in the above-referenced assay is summarized in the following table: […]
In turn, `CNC(=O)C(N)CN1C(C)c2cc(-c3c[nH]c4cc(F)ccc34)ccc2S1(=O)=O` (single isomer, unassigned) [Example 101] displayed an IC50 of 366 nM.

In turn, `CC1c2cc(-c3c[nH]c4cc(F)ccc34)ccc2S(=O)(=O)N1CC1(C)COC(=O)N1` (single isomer, unassigned; (+)) [Example 90, (+)-4-((5-(6-fluoro-1H-indol-3-yl)-3-methyl-1,1-dioxidobenzo[d]isothiazol-2(3H)-yl)methyl)-4-methyloxazolidin-2-one] displayed an IC50 of 358 nM.

Molecule `CCC1NS(=O)(=O)c2ccc(-c3c[nH]c4cc(F)ccc34)cc21` (single isomer, unassigned; (+)) [Example 3, (+)-3-ethyl-5-(6-fluoro-1H-indol-3-yl)-2,3-dihydrobenzo[d]-isothiazole 1,1-dioxide] registered an IC50 of 64 nM. As for `CC1c2cc(-c3c[nH]c4cc(F)ccc34)ccc2S(=O)(=O)N1C1CCNC(=O)C1` (single isomer, unassigned; (+)) [Example 121, (+)-4-(-5-(6-fluoro-1H-indol-3-yl)-3-methyl-1,1-dioxidobenzo[d]isothiazol-2(3H)-yl)piperidin-2-one], the figure is 348 nM; as for `CNC(=O)C(CN1C(C)c2cc(-c3c[nH]c4cc(F)ccc34)ccc2S1(=O)=O)OC` (single isomer, unassigned; (+)) [Example 105, (+)-3-(5-(6-fluoro-1H-indol-3-yl)-3-methyl-1,1-dioxidobenzo[d]isothiazol-2(3H)-yl)-2-methoxy-N-methylpropanamide], 188 nM; as for `CS(=O)(=O)NCC1NS(=O)(=O)c2ccc(-c3c[nH]c4cc(F)ccc34)cc21` (single isomer, unassigned; (+)) [Example 140, (+)-N-((5-(6-fluoro-1H-indol-3-yl)-1,1-dioxido-2,3-dihydrobenzo[d]isothiazol-3-yl)methyl)methanesulfonamide], 285 nM. Then `CC1c2cc(-c3c[nH]c4cc(F)ccc34)ccc2S(=O)(=O)N1CCS(N)(=O)=O` (single isomer, unassigned; (+)) [Example 61, (+)-2-(5-(6-fluoro-1H-indol-3-yl)-3-methyl-1,1-dioxidobenzo[d]isothiazol-2(3H)-yl)ethane-1-sulfonamide], with 309 nM. As for `CNS(=O)(=O)CCN1C(C)c2cc(-c3c[nH]c4cc(F)ccc34)ccc2S1(=O)=O` (single isomer, unassigned; (+)) [Example 60, (+)-2-(5-(6-fluoro-1H-indol-3-yl)-3-methyl-1,1-dioxidobenzo[d]isothiazol-2(3H)-yl)-N-methylethane-1-sulfonamide], the figure is 133 nM. For `O=S1(=O)c2ccc(-c3c[nH]c4cc(F)ccc34)cc2CN1[C@H]1CCOC1` [Example 39, (S)-5-(6-fluoro-1H-indol-3-yl)-2-(tetrahydrofuran-3-yl)-2,3-dihydrobenzo[d]isothiazole 1,1-dioxide], the IC50 is 342 nM. As for `CC1c2cc(-c3c[nH]c4cc(F)ccc34)ccc2S(=O)(=O)N1CCN1CCOCC1` (single isomer, unassigned; (+)) [Example 118, (+)-5-(6-fluoro-1H-indol-3-yl)-3-methyl-2-(2-morpholinoethyl)-2,3-dihydrobenzo[d]isothiazole 1,1-dioxide], it took 191 nM to reach half-maximal inhibition (IC50). This IC50 lies about 1.8-fold lower than the previous one. As for `CNC(=O)C(N)CN1C(C)c2cc(-c3c[nH]c4cc(F)ccc34)ccc2S1(=O)=O` (single isomer, unassigned; (+)) [Example 104, (+) 2-amino-3-(5-(6-fluoro-1H-indol-3-yl)-3-methyl-1,1-dioxidobenzo[d]isothiazol-2(3H)-yl)-N-methylpropanamide], the figure is 120 nM. Then `CC1c2cc(-c3c[nH]c4cc(F)ccc34)ccc2S(=O)(=O)N1C1CNC1` (single isomer, unassigned; (-)) [Example 91, (−)-2-(azetidin-3-yl)-5-(6-fluoro-1H-indol-3-yl)-3-methyl-2,3-dihydrobenzo[d]isothiazole 1,1-dioxide], with 260 nM.
